Data from the supplement of paper PMC10307832.

Tests used:
Experiment in all cases: relative viability (nuclei count vs DMSO), 5 days (fraction); higher = more cells survive
AZD1208 + Vorinostat = compound: N[C@@H]1CCCN(c2c(/C=C3\SC(=O)NC3=O)cccc2-c2ccccc2)C1 [AZD1208] + O=C(CCCCCCC(=O)Nc1ccccc1)NO [Vorinostat] (partner 1 µM)
How it was run: (§1)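 Five library-drug doses in √10 steps were combined with a fixed anchor-drug dose, or a single drug was given alone, by pin tool to lung cancer cell lines in 1536-well plates the day after seeding. Nuclei were stained and counted after 5 days. Relative viability is the nuclei count in treated wells over that in vehicle wells, taken as the median of duplicate plates.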

XMD14-99 + Pictilisib = compound: CN1CCN(CC1)C2=CC(=C(C=C2)NC3=NC(=C(S3)C(=O)C4=C(C=CC=C4Cl)Cl)N)OC [XMD14-99] + CS(=O)(=O)N1CCN(Cc2cc3nc(-c4cccc5[nH]ncc45)nc(N4CCOCC4)c3s2)CC1 [Pictilisib] (partner 1 µM)
How it was run: as §1

AZD1208 + Linsitinib = compound: N[C@@H]1CCCN(c2c(/C=C3\SC(=O)NC3=O)cccc2-c2ccccc2)C1 [AZD1208] + C[C@]1(O)C[C@@H](c2nc(-c3ccc4ccc(-c5ccccc5)nc4c3)c3c(N)nccn32)C1 [Linsitinib] (partner 1 µM)
How it was run: as §1

AZD1208 + Olaparib = compound: N[C@@H]1CCCN(c2c(/C=C3\SC(=O)NC3=O)cccc2-c2ccccc2)C1 [AZD1208] + O=C(c1cc(Cc2n[nH]c(=O)c3ccccc23)ccc1F)N1CCN(C(=O)C2CC2)CC1 [Olaparib] (partner 8 µM)
How it was run: as §1

Cell Line: UMC-11
- relative viability (AZD1208 + Vorinostat; first compound 0.08 µM): 0.362
- relative viability (AZD1208 + Vorinostat; first compound 0.253 µM): 0.354
- relative viability (AZD1208 + Vorinostat; first compound 0.8 µM): 0.3
- relative viability (AZD1208 + Vorinostat; first compound 2.53 µM): 0.294
- relative viability (AZD1208 + Vorinostat; first compound 8 µM): 0.211
- relative viability (XMD14-99 + Pictilisib; first compound 0.08 µM): 0.802
- relative viability (XMD14-99 + Pictilisib; first compound 0.8 µM): 0.856
- relative viability (XMD14-99 + Pictilisib; first compound 2.53 µM): 0.795
- relative viability (XMD14-99 + Pictilisib; first compound 8 µM): 0.663
- relative viability (AZD1208 + Linsitinib; first compound 0.08 µM): 0.909
- relative viability (AZD1208 + Linsitinib; first compound 0.253 µM): 0.767
- relative viability (AZD1208 + Linsitinib; first compound 0.8 µM): 0.772
- relative viability (AZD1208 + Linsitinib; first compound 2.53 µM): 0.67
- relative viability (AZD1208 + Linsitinib; first compound 8 µM): 0.558
- relative viability (AZD1208 + Olaparib; first compound 0.08 µM): 0.27
- relative viability (AZD1208 + Olaparib; first compound 0.253 µM): 0.374
- relative viability (AZD1208 + Olaparib; first compound 0.8 µM): 0.333
- relative viability (AZD1208 + Olaparib; first compound 2.53 µM): 0.309
- relative viability (AZD1208 + Olaparib; first compound 8 µM): 0.264
